Test results from PubChem BioAssay (NCI).
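Cultured in 96-well plates, cells were exposed to test compound for 48 hours across five concentrations. At the GI50, growth is halved. Definition used: TGI = concentration required for complete inhibition of growth.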

Assays:
Experiment in all cases: NCI-60 cell line screen, 48 h; in the data active = GI50 below about 0.43 µM; inactive = the rest
UACC-257 melanoma = test system: UACC-257 melanoma
HCT-116 colon = test system: HCT-116 colon
A498 renal = test system: A498 renal
NCI-H522 lung = test system: NCI-H522 lung
UO-31 renal = test system: UO-31 renal
HOP-62 NSCLC = test system: HOP-62 NSCLC
SW-620 colon = test system: SW-620 colon
786-0 renal = test system: 786-0 renal
SK-MEL-5 melanoma = test system: SK-MEL-5 melanoma
HS 578T breast = test system: HS 578T breast
T-47D breast = test system: T-47D breast
OVCAR-8 ovarian = test system: OVCAR-8 ovarian
UACC-62 melanoma = test system: UACC-62 melanoma
HT29 colon = test system: HT29 colon
K-562 leukemia = test system: K-562 leukemia
SK-MEL-28 melanoma = test system: SK-MEL-28 melanoma
A549 NSCLC = test system: A549 NSCLC
SNB-75 CNS = test system: SNB-75 CNS
CCRF-CEM leukemia = test system: CCRF-CEM leukemia
RXF 393 renal = test system: RXF 393 renal
MDA-MB-435 = test system: MDA-MB-435
NCI-H23 lung = test system: NCI-H23 lung
NCI-H460 lung = test system: NCI-H460 lung
HOP-92 NSCLC = test system: HOP-92 NSCLC
SK-OV-3 ovarian = test system: SK-OV-3 ovarian
OVCAR-4 ovarian = test system: OVCAR-4 ovarian
CAKI-1 renal = test system: CAKI-1 renal
SF-539 CNS = test system: SF-539 CNS
TK-10 renal = test system: TK-10 renal

C#CCOc1cccc(-c2nc(N)nc(Nc3ccccc3SSc3ccccc3Nc3nc(N)nc(-c4cccc(OCC#C)c4)n3)n2)c1
13.3 µM: TGI (UACC-62 melanoma)
12.9 µM: TGI (OVCAR-8 ovarian)
10.4 µM: TGI (NCI-H23 lung)
14.2 µM: TGI (CAKI-1 renal)
inactive: GI50 (UACC-257 melanoma) 29.7 µM | GI50 (HCT-116 colon) 2 µM | GI50 (A498 renal) 6.58 µM | GI50 (NCI-H522 lung) 8.13 µM | GI50 (UO-31 renal) 1.51 µM | GI50 (HOP-62 NSCLC) 0.674 µM | GI50 (SW-620 colon) 14.3 µM | GI50 (786-0 renal) 21.2 µM | GI50 (SK-MEL-5 melanoma) 9.94 µM | GI50 (HS 578T breast) 6.87 µM | GI50 (T-47D breast) 3.29 µM | GI50 (OVCAR-8 ovarian) 2.42 µM | GI50 (UACC-62 melanoma) 5.43 µM | GI50 (HT29 colon) > 33.3 µM | GI50 (K-562 leukemia) 8.03 µM | GI50 (SK-MEL-28 melanoma) > 33.3 µM | GI50 (A549 NSCLC) 1.1 µM | GI50 (SNB-75 CNS) 8.99 µM | GI50 (CCRF-CEM leukemia) 2.64 µM | GI50 (RXF 393 renal) 33.1 µM | GI50 (MDA-MB-435) 14.4 µM | GI50 (NCI-H23 lung) 1.95 µM | GI50 (NCI-H460 lung) 1.72 µM | GI50 (HOP-92 NSCLC) 7.77 µM | GI50 (SK-OV-3 ovarian) 13.6 µM | GI50 (OVCAR-4 ovarian) 12.9 µM | GI50 (CAKI-1 renal) 3.78 µM | GI50 (SF-539 CNS) 11.1 µM | GI50 (TK-10 renal) 13.1 µM
4.49 µM: TGI (A549 NSCLC)
31.7 µM: TGI (HS 578T breast)
8.37 µM: TGI (NCI-H460 lung)
31.3 µM: TGI (SNB-75 CNS)
> 33.3 µM: TGI (UACC-257 melanoma) | TGI (HCT-116 colon) | TGI (A498 renal) | TGI (NCI-H522 lung) | TGI (SW-620 colon) | TGI (786-0 renal) | TGI (SK-MEL-5 melanoma) | TGI (T-47D breast) | TGI (HT29 colon) | TGI (K-562 leukemia) | TGI (SK-MEL-28 melanoma) | TGI (CCRF-CEM leukemia) | TGI (RXF 393 renal) | TGI (MDA-MB-435) | TGI (HOP-92 NSCLC) | TGI (SK-OV-3 ovarian) | TGI (OVCAR-4 ovarian) | TGI (SF-539 CNS)
1.58 µM: TGI (HOP-62 NSCLC)
5.81 µM: TGI (UO-31 renal)
